Results taken from PMC12930396, “Positive modulators of N-methyl-D-aspartate receptor: structure–activity relationship study on steroidal C-17 and C-20 oxime ethers” (RSC Advances, 2026).
≈ marks a conversion by molar mass, not a printed value. Entries after “also recorded” stand apart in the source; their conditions may differ.

Assays:
GluN1/GluN2B receptors [1] = settings: cited from earlier work; for EC50: read-out: EC50, potentiation of GluN1/GluN2B receptor responses
in vitro [2] = settings: for half-life at 10 µM: rat, microsomes
Description: The reactions were terminated by the addition of four volumes of ice-cold methanol, mixed vigorously, and left at −20 °C for 1h. After that, the samples were centrifuged and the supernatants were analysed by means of ECHO-MS® System (Sciex, Framingham, MA, USA). Zero time points were prepared by adding ice-cold methanol to the mixture of the compound with cofactors before the addition of microsomes. […] Intrinsic clearance (CLint) was calculated using the following formula: [drawing 4] where V is the incubation volume per milligram of microsomal protein (µL mg^−1) and t1/2 is the microsomal half-life.

Stability in rat plasma = type: in vitro ADME; settings: rat, plasma
Description: Compounds were prepared as 1.6 mg mL^−1 stock solutions in methanol. Then, 20 µL of stock solution was added to 1000 µL of rat plasma (BioIVT, Cat. No. RAT00PLLH-0102307), maintained at 37 °C. Aliquots (50 µL) withdrawn at 0, 8, and 24 h were analyzed by HPLC. An aliquot of plasma was extracted with methanol (450 µL) containing an internal standard, and the solution was vortexed (20 s) and centrifuged at 13 500 rpm for 10 min. The supernatant was transferred to an autosampler vial, and 10 µL was injected into an LC-MS system. The samples were analyzed using an Agilent 6230 TOF LC/MS. Samples were separated on a Waters ACQUITY UPLC CSH Phenyl-Hexyl column (100 × 2.1, 130 Å, 1.7 µm) at a flow rate of 0.3 mL min^−1. […]. The temperature, the flow rate of the nitrogen drying gas, the pressure of the nitrogen nebulizing gas, and the flow rate of the sheath gas were set at 325 °C, 10 L min^−1, 40 psi, […], and 11 L min^−1, respectively. Results are represented as a percentage of the compound remaining in spiked plasma.

GluN1/GluN2B receptors [3] = target: T1, GluN1/GluN2B receptors (Rattus norvegicus, UniProt P35439+Q00960); experiment: Patch-clamp: modulation of glutamate-induced currents of recombinant GluN1/GluN2B receptors expressed in HEK293 cells; type: cell-based; settings: for h ± SEM (apparent Hill coefficient): concentration-response fit; for h ± SEM (apparent Hill coefficient) / EC50 / Emax: mean ± SEM; for EC50: half-maximal potentiation of currents evoked by 1 µM glutamate; for EC50 / Emax: HEK293; for Emax: maximal potentiation of currents evoked by 1 µM glutamate and 30 µM glycine
T1 construct: expressed in transfected cells; host or cells: HEK293 cells (ATCC No. CRL-1573)
T1 sequence (Q00960 27-1482, other chains not shown): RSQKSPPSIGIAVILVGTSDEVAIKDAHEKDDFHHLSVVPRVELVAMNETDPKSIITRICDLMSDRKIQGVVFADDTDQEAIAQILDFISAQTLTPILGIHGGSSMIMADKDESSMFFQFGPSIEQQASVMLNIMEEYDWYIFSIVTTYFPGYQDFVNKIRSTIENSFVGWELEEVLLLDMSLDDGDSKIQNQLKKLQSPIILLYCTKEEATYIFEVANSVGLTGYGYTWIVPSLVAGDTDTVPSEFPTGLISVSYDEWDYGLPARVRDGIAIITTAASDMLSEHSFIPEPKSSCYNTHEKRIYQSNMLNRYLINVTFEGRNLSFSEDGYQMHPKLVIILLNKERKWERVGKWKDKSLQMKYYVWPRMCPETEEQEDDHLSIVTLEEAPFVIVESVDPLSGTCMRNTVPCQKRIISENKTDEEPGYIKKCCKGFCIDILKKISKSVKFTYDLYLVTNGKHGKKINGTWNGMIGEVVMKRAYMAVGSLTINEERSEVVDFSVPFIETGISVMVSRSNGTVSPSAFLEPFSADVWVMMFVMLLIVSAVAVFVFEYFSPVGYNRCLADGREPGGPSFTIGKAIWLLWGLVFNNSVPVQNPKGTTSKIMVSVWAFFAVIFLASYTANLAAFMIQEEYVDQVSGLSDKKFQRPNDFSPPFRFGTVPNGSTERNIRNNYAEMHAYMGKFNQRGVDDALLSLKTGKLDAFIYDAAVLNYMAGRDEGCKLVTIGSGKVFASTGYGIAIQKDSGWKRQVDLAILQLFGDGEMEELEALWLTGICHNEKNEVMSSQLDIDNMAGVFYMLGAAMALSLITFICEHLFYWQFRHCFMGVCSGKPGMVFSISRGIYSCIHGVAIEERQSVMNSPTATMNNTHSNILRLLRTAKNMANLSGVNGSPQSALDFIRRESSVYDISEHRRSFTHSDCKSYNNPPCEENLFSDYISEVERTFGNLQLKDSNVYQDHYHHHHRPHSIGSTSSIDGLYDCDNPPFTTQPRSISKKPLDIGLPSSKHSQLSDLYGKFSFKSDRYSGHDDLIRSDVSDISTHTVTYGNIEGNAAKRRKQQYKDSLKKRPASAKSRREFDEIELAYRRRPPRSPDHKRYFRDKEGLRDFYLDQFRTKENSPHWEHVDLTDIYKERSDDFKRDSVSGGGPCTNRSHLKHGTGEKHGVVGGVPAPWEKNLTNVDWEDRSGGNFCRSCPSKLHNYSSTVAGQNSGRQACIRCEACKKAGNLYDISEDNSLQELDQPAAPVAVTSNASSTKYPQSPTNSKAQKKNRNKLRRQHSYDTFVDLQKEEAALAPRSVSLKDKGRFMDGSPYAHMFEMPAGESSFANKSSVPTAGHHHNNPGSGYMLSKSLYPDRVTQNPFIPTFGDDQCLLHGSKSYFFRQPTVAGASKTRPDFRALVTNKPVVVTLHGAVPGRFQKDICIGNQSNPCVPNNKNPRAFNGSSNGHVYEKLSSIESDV
Description: To investigate the effect of compounds 11–23 on the activity of NMDARs, electrophysiological measurements were performed on HEK293 cells that were co-transfected with cDNAs containing genes encoding for the rat GluN1-1a and GluN2B subunits. The degree of modulation (E; potentiation/inhibition) for the newly synthesized compounds was determined using the following formula: [drawing 1] where Ie is the value of the current amplitude during glutamate and compound coapplication, and Ia is the current amplitude value for glutamate application. […] The results are presented as mean ± standard error of the mean (SEM), with n equal to the number of independent measurements. One-way analysis of variance (ANOVA) was used for multiple comparisons (unless otherwise stated, a value of P ≤ 0.05 was used for the determination of significance).
We have evaluated the relationship between oxime derivatives 11–23 and their modulatory effect on recombinant GluN1/GluN2B receptors. Due to the […] effect of neurosteroid-based PAMs at NMDARs[20,44]
HEK293 cells (American Type Culture Collection, ATCC No. CRL-1573, Rockville, MD, USA) were cultured in Opti-MEM I (Invitrogen, Carlsbad, CA, USA) supplemented with 5% fetal bovine serum (FBS; PAN Biotech, Aidenbach, Germany) at 37 °C in 5% CO2. 24 h before transfection, HEK293 cells were plated in 24-well plates at a density of 2 × 10^5 cells per well. The next day, the cells were transfected with cDNA encoding rat GluN1-1a (GluN1; GenBank accession number U08261)[56] and GluN2B (GenBank accession number M91562)[57] subunits (in the pCI-neo expression vector), along with green fluorescent protein (GFP; in the pQBI 25 vector, Takara, Tokyo, Japan). Briefly, equal amounts (200 ng) of cDNAs encoding GluN1-1a, GluN2B, and GFP were mixed with 0.6 µl of Matra-A reagent (IBA, Gottingen, Germany) in 50 µL of Opti-MEM I and added to confluent HEK293 cells cultured in 24-well plates. After trypsinization, the cells were resuspended in Opti-MEM I containing 1% FBS, supplemented with 20 mM MgCl2, 1 mM D,L-2-amino-5-phosphonovaleric acid, 3 mM kynurenic acid, and 1 µM ketamine, and plated on 30 mm glass coverslips coated with collagen and poly-L-lysine. Transfected cells were identified by GFP epifluorescence. Electrophysiology experiments were performed 24–48 h after transfection.
Whole-cell current recordings, voltage-clamped at a holding potential of −60 mV, were performed at room temperature using a patch-clamp amplifier (Axopatch 200B; Molecular Devices, Sunnyvale, CA, USA) after capacitance and series resistance (<10 MΩ) compensation (80–90%). NMDAR current responses were low-pass filtered at 2 kHz, digitally sampled at 5 kHz, and analysed using pClamp software (version 10.6; Molecular Devices). Patch pipettes (3–5 MΩ), pulled from borosilicate glass, were filled with an intracellular solution (ICS) containing (in mM): 15 CsCl, 10 BAPTA, 3 MgCl2, 1 CaCl2, 120 gluconic acid, 10 HEPES, and 2 ATP-Mg salt (pH adjusted to 7.2 with CsOH). The extracellular solution (ECS) contained (in mM): 160 NaCl, 2.5 KCl, 0.2 EDTA, 10 glucose, 10 HEPES, and 0.7 CaCl2 (pH adjusted to 7.3 with NaOH). NMDAR responses were induced by 1 µM glutamate and 30 µM glycine. 1% DMSO was present in all control and testing solutions. Solution applications were performed using a microprocessor-controlled multibarrel fast-perfusion system with a solution exchange rate around the cells of ∼10 ms.[58]

in vitro [4] = settings: for PAMPA permeability Retention (mass retention): 5 h, 100 µM; for PAMPA permeability Retention (mass retention) / Papp at 5 h, 100 µM: pH 7.4; for Papp at 5 h, 100 µM: PAMPA
Description: Permeability was quantified using permeability coefficients (Pe) and mass retention, the latter representing the proportion of compound retained in the membrane.
Permeation experiments were conducted in polystyrene 96-well filter plates with PVDF membrane pre-coated with structured layers of phospholipids (Corning Gentest™) according to the manufacturer's instructions. Briefly, the plate was warmed to room temperature, and meanwhile, the solutions of the compounds were diluted from 10 mM DMSO stocks to TRIS–HCl buffer pH 7.4 to reach a 100 µM final concentration. The DMSO concentration in the samples was 1%. Then, 300 µL of these solutions were transferred into the donor (receiver) plate wells, and 200 µL of the (TRIS) buffer was added to the acceptor (filter) plate wells. The filter plate and receiver plate were assembled and incubated for 5 h on an orbital shaker (300 rpm). After this, the concentration of the tested substances in both the donor and acceptor compartments was determined with use of LC/MS. Liquid chromatography was performed using an ExionLC AD pump and autosampler from Sciex (Framingham, MA, USA). […] The mobile phase flow rate was 300 µL min^−1. The column Synergi Fusion-RP from Phenomenex (Torrance, CA, USA) was used and was kept at 40 °C during the analysis.

[5] = Thermodynamic solubility in PBS pH 7.4; type: physicochemical; settings: 20 °C, pH 7.4, aqueous buffer, thermodynamic from solid, Solubility PBS, pH 7.4 (thermodynamic)
Description: The reference samples were prepared as follows: a weight corresponding to 2.5 µmol was dissolved in 250 µL of DMSO, resulting in a concentration of 10 mM stock solution. Each calibration level standard was prepared by diluting the stock solution in a mixture of PBS and acetonitrile (50 : 50 v/v). The samples for testing were prepared as follows: the volume of 1000 µL of PBS was added to the testing tube containing a weight of sample corresponding to 0.4 mM. The mixture was shaken at 1000 rpm at 20 °C for 24 h. The mixture was then filtered using a syringe polypropylene 0.45 µm filter. Samples and calibration standards are prepared using an automated system of a robotic arm (PAL-RTC, Switzerland). Then, the sample was analysed on chromatographic system (Vanquish UHPLC, Thermo Fisher Scientific, Germany) connected to the diode array detector and consequently to the charged aerosol detector (both Vanquish, Thermo Fisher Scientific, Germany), Thermo Scientific Accucore C8 (100 × 3 mm; 2.6 µm) column, using gradient elution with acetonitrile/methanol/5 mM formate buffer (pH = 3.00); flow: 1.0 cm^3 min^−1; column temperature: 40 °C; CAD temperature: 30 °C; sample volume: 5 mm^3.

| Compound | Emax, potentiation of GluN1/GluN2B receptor responses (GluN1/GluN2B receptors [1]) | EC50 (GluN1/GluN2B receptors [1]) | half-life at 10 µM (in vitro [2]; pH 7.4) | Stability in rat plasma (% remaining) 8 h (Stability in rat plasma) | Stability in rat plasma (% remaining) 24 h (Stability in rat plasma) | h ± SEM (apparent Hill coefficient) (GluN1/GluN2B receptors [3]) | EC50 (GluN1/GluN2B receptors [3]) | Emax (GluN1/GluN2B receptors [3]) | PAMPA permeability Retention (mass retention) (in vitro [4]) | Papp at 5 h, 100 µM (in vitro [4]) | also measured |
| --- | --- | --- | --- | --- | --- | --- | --- | --- | --- | --- | --- |
| C[C@]12CC[C@H](OC(=O)CCCCC(=O)O)CC1=CCC1C2CC[C@]2(C)C(=O)CCC12 (stereo partly shown) [Compound 6] | 180% | 108 µM |  |  |  |  |  |  |  |  |  |
| C[C@]12CC[C@H](OC(=O)CCCCCC(=O)O)CC1=CCC1C2CC[C@]2(C)C(=O)CCC12 (stereo partly shown) [Compound 7] | 187% | 82 µM |  |  |  |  |  |  |  |  |  |
| C[C@]12CC[C@H](OC(=O)CCCCCCC(=O)O)CC1=CCC1C2CC[C@]2(C)C(=O)CCC12 (stereo partly shown) [Compound 8] | 189% | 49 µM |  |  |  |  |  |  |  |  |  |
| C[C@]12CC[C@H](OC(=O)CCCCCCCC(=O)O)CC1=CCC1C2CC[C@]2(C)C(=O)CCC12 (stereo partly shown) [Compound 9] | 226% | 32 µM |  |  |  |  |  |  |  |  |  |
| C[C@]12CC[C@H](OC(=O)CCCCCCCCC(=O)O)CC1=CCC1C2CC[C@]2(C)C(=O)CCC12 (stereo partly shown) [Compound 10] | 165% | 16 µM |  |  |  |  |  |  |  |  |  |
| C/C(=N\O)[C@H]1CCC2C3CC=C4C[C@@H](OC(=O)CCCC(=O)O)CC[C@]4(C)C3CC[C@@]21C (stereo partly drawn) [Compound 11, 20-Oxo-pregn-5-en-3β-yl 3-hemiglutarate 20-oxime] |  |  | 58.6 ± 18.7 min | 69.9 ± 6.0 % remaining | 58.1 ± 8.1 % remaining | 1.5 ± 0.1 | 7.9 ± 2.1 µM | 270 ± 35% | 87% | 155 ×10⁻⁶ cm/s | Stability in rat microsomes Clint (in vitro [2]): 23.6 µlmin^−1mg; PAMPA permeability (in vitro [4]): comparable to or greater than that of verapamil |
| C[C@]12CC[C@H](OC(=O)CCCC(=O)O)CC1=CCC1C2CC[C@]2(C)/C(=N/O)CCC12 (stereo partly drawn) [Compound 14, 17-Oxo-androst-5-en-3β-yl 3-hemiglutarate 17-oxime] |  |  | > 60 min | 61.1 ± 1.6 % remaining | 56.3 ± 2.5 % remaining |  |  |  | 17% | 26.3 ×10⁻⁶ cm/s | Modulatory profile at NMDARs (GluN1/GluN2B receptors [3]; GluN1/GluN2B in HEK293): not identified as PAMs; also recorded: lost its PAM-activity; PAMPA permeability (in vitro [4]): moderate permeability |
| CCO/N=C1\CCC2C3CC=C4C[C@@H](OC(=O)CCCC(=O)O)CC[C@]4(C)C3CC[C@]12C (stereo partly drawn) [Compound 15, 17-Oxo-androst-5-en-3β-yl hemiglutarate O-ethyloxime] |  |  | > 60 min | 82.1 ± 7.5 % remaining | 69.9 ± 5.0 % remaining | 1.5 ± 0.1 | 22.7 ± 3.1 µM | 441 ± 76% | 80% |  |  |
| CCO/N=C(\C)[C@H]1CCC2C3CC=C4C[C@@H](OC(=O)CCC(=O)O)CC[C@]4(C)C3CC[C@@]21C (stereo partly drawn) [Compound 22, 20-Oxo-pregn-5-en-3β-yl hemisuccinate O-ethyloxime] |  |  | 52.6 ± 3.7 min |  |  | 1.3 ± 0.1 | 7 ± 1.1 µM | 340 ± 22% | 96% | 1.58 ×10⁻⁶ cm/s | solubility thermodynamic at 24 h [5]: 22 ± 1 µM; Stability in rat microsomes Clint (in vitro [2]): 26.3 µlmin^−1mg |
| CCO/N=C(\C)[C@H]1CCC2C3CC=C4C[C@@H](OC(=O)CCCCC(=O)O)CC[C@]4(C)C3CC[C@@]21C (stereo partly drawn) [Compound 23, 20-Oxo-pregn-5-en-3β-yl hemiadipate O-ethyloxime] |  |  | > 60 min |  |  | 1.7 ± 0.1 | 7.5 ± 1.1 µM | 451 ± 79% | 100% |  | solubility thermodynamic at 24 h [5]: 21 ± 1 µM (≈ 10.2 µg/mL); Metabolic stability in rat liver microsomes (in vitro [2]; 1 h, 10 µM, pH 7.4): no detectable metabolism after 60 min |
